Data as given in PMC7584652 (Nature Communications, 2020).

What was measured:
Details in all cases: labelled compound ([5′-α-32P]); 10 mM Tris pH 7.5, 100 mM NaCl, 5 mM MgCl2, room temperature
[1] = target: PurR (Bacillus anthracis, UniProt A0AAC8NAH2)
[2] = target: T1, RbgA (Bacillus anthracis, UniProt A0A6L8PZ03)
T1 construct: gene GBAA_3976

[3] = target: GuaC (Bacillus anthracis, UniProt Q81JJ9)
[4] = target: T2, YjbM (SAS1) (Bacillus anthracis, UniProt A0A2P0HBB4)
T2 construct: gene BA_1212

Nc1nc2c(ncn2[C@@H]2O[C@H](COP(=O)(O)OP(=O)(O)O)[C@@H](OP(=O)(O)OP(=O)(O)O)[C@H]2O)c(=O)[nH]1 [ppGpp]
DRaCALA screen in E. coli overexpression lysate [1]: purine nucleotide synthesis proteins (Hpt1, Xpt, Gmk, GuaC, PurA, and PurR)
DRaCALA screen in E. coli overexpression lysate [2]: ribosome and translation regulatory GTPases (HflX, Der, Obg, RbgA, TrmE, and Era)

Nc1nc2c(ncn2[C@@H]2O[C@H](COP(=O)(O)O)[C@@H](OP(=O)(O)OP(=O)(O)O)[C@H]2O)c(=O)[nH]1 [pGpp, guanosine-5′-monophosphate-3′-diphosphate]
DRaCALA screen in E. coli overexpression lysate [3]: including HprT, Xpt, Gmk, and GuaC, bound both pGpp and (p)ppGpp

Nc1nc2c(ncn2[C@@H]2O[C@H](COP(=O)(O)OP(=O)(O)OP(=O)(O)O)[C@@H](OP(=O)(O)OP(=O)(O)O)[C@H]2O)c(=O)[nH]1 [pppGpp]
DRaCALA screen in E. coli overexpression lysate [4]: several proteins bind to pppGpp but not ppGpp, including the small alarmone synthetase YjbM
